Test results from PMC7385938 (Cell Stress & Chaperones, 2020).

Target: HSPA5-FL (Homo sapiens, UniProt P11021)
Assay: ITC, liposomes titrated into protein
Type: binding

Sequence of HSPA5-FL (P11021 25-654): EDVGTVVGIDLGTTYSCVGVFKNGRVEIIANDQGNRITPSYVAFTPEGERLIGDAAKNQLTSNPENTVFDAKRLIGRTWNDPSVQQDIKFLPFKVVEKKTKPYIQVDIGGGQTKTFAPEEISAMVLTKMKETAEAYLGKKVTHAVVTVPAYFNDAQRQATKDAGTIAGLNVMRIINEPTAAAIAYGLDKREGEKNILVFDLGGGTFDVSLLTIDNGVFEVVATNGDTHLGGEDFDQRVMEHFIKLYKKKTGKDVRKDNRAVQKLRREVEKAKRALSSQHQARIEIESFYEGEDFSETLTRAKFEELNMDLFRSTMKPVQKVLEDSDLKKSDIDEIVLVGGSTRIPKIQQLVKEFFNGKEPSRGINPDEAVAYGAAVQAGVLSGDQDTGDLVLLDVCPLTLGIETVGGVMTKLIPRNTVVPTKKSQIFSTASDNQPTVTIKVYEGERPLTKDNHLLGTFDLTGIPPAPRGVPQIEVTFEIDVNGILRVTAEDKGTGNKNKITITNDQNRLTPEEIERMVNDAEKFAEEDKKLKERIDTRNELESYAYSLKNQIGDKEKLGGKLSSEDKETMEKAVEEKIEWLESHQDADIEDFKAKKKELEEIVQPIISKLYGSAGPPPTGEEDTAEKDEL

Kd [µM]	SMILES
1.6 ± 0.5	CCCCCCCCCCCCCC(=O)OC[C@H](COP(=O)(O)OCC(O)COP(=O)(O)OC[C@@H](COC(=O)CCCCCCCCCCCCC)OC(=O)CCCCCCCCCCCCC)OC(=O)CCCCCCCCCCCCC (some centres unmarked) [CL, 1′,3′-bis[1,2-dimyristoyl-sn-glycero-3-phospho]-glycerol]
3.5 ± 0.8	CCCCCCCC/C=C\CCCCCCCC(=O)O[C@H](COC(=O)CCCCCCCCCCCCCCC)COP(=O)(O)OC[C@H](N)C(=O)O [POPS]
